The target in this test is human GPR120 (Homo sapiens (Human), UniProt Q5NUL3). Description: GPR120 pERK AlphaScreen SureFire Assay (human GPR120 pERK assay). The format is cell-based. To be noted: CHOA12 or CHO-K1 cells stably transfected with the short form of human GPR120 receptor; phosphorylated ERK; read-out: EC50 values measured in the human GPR120 pERK assay. An excerpt:
GPR120 activity was monitored by measuring phosphorylation of ERK (pERK), since G protein receptors are known to activate the ERK signaling cascade either directly and/or through recruitment of arrestin that serves as a scaffold for downstream signaling events.
GPR120 pERK AlphaScreen SureFire Assay
The human and mouse GPR120-mediated intracellular phosphorylated ERK assays were established using CHOA12 cells stably transfected with the short form of human or mouse GPR120 receptor. Cells were cultured in growth medium consisting of F-12 media (Invitrogen Cat. #11765) with 5% Charcoal/Dextran FBS (Invitrogen Cat. #12676-029), 500 μg/mL GENETICIN® (Life Technologies Cat. #10131-027) and 250 μg/mL Zeocin (Invitrogen Cat. #R250-01). Cells were cryo preserved at a concentration of 2×10^7 cells/mL, in 90% Charcoal/Dextran FBS and 10% DMSO, and frozen in liquid nitrogen at a low passage number.
For the pERK assay, 2×10^7 cells/mL cryopreserved human and mouse cells were thawed rapidly in a 37° C. water bath and added to a T-225 flask containing 50 mL growth medium. The flasks were placed in a tissue culture incubator overnight (37° C., 5% CO2). The next day, cells were harvested with trypsin (Gibco Cat. #25300-054), resuspended in serum-containing growth medium and counted using a Cellometer and volume adjusted to a concentration of 0.6×10^6 cells/mL. Cells were plated into 384-well clear bottom tissue culture plates (BD Cat. #353962) at 50 μL/well, for a density of 30,000 cells/well using a MULTIDROP® and incubated for 16-18 hours (overnight) at 37° C. with 5% CO2. The next day, cells were serum starved in 30 μL of F-12 media without any serum or antibiotics for 2 hours at 37° C.
Test compounds were 3-fold, 11-point serially diluted in DMSO in a REMP assay plate (Matrix Cat. #4307) by Tecan and 5 μL was transferred into an ECHO source plate (LabCyte Cat. #LC-0200). Cells were then stimulated with 50 nL of compound dilutions using ECHO liquid handler for 7 minutes at 37° C. Compounds ranged from final assay concentrations of 33.33 μM to 0.56 nM.
The media was then dumped and cells lysed with 20 μL of 1× Lysis buffer from the AlphaScreen SureFire Phospho-ERK 1/2 Kit (Perkin Elmer Cat. #6760617M). The lysis buffer was diluted 5-fold with water before use. The plate was agitated on a shaker for 10 minutes after which 2 μL was transferred into a 384-well white proxiplate (Perkin Elmer Cat. #6008289). The SureFire assay reagent mix was prepared by mixing 60 parts Reaction Buffer, 10 parts Activation Buffer, 1 part Donor Beads, 1 part Acceptor Beads (Perkin Elmer Cat. #TGRES10K). 3.5 μL/well of this reagent mix was manually added to the proxiplate with a multichannel pipettor. Plates were spun down at 1000 rpm for 2 minutes, followed by light-protected incubation at room temperature for 2 hours. The plates were read on the Alpha-technology compatible Envision multilabel plate reader using AlphaScreen protocol according to manufacturer's specifications. The agonist effect of compounds was expressed as 100×(average sample-average blank)/(average total−average blank) where sample is the luminescence activity in the presence of test compound, blank is equal to the luminescence activity in the presence of DMSO control and the total is signal induced by 50 μM linolenic acid as reference compound. Activation data for the test compound over a range of concentrations was plotted as percentage activation of the test compound (100%=maximum response). After correcting for background, EC50 values were determined. The EC50 is defined as the concentration of test compound which produces 50% of the maximal response and was quantified using the 4 parameter logistic equation to fit the data.
The human and mouse GPR120-mediated intracellular phosphorylated ERK assays were also established using CHO-K1 cells stably transfected with the short form of human or mouse GPR120 receptor. […]
human GPR120, sequence (Q5NUL3 whole entry): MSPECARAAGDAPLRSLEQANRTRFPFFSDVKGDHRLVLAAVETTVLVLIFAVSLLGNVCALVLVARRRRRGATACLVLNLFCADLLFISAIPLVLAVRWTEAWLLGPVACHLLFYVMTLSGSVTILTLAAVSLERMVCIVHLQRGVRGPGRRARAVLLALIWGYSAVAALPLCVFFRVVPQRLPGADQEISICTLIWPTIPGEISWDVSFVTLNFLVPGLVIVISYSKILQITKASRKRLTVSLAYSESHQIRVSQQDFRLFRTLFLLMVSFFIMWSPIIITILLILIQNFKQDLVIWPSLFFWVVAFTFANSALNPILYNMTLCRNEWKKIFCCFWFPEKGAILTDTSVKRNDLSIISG
As to `COc1cc(F)cc(COC23CCC(CCCC(=O)O)(CC2)C3)c1` [Example 27, 4-(4-(3-fluoro-5-methoxybenzyl-oxy)bicyclo [2.2.1]heptan-1-yl)butanoic acid], the EC50 stood at 1560 nM.

Turning to `Cc1cc(COC23CCC(CCCC(=O)O)(CC2)C3)n(-c2ccc(Cl)cc2)n1` [Example 1, 4-(4-((1-(4-Chlorophenyl)-3-methyl-1H-pyrazol-5-yl)methoxy)bicyclo[2.2.1]heptan-1-yl) butanoic acid], the EC50 was 1560 nM.

With `O=C(O)CCCC12CCC(OCc3ccccc3Oc3ccccc3)(CC1)C2` [Example 14, 4-(4-(2-phenoxy-benzyloxy)bicyclo[2.2.1]heptan-1-yl) butanoic acid], the concentration for a half-maximal effect (EC50) was 270 nM.

On to `O=C(O)CCCC12CCC(OCc3cccc(Oc4ccccc4)c3)(CC1)C2` [Example 15, 4-(4-(3-phenoxy-benzyloxy)bicyclo[2.2.1]heptan-1-yl) butanoic acid], for which the EC50 turned out to be 360 nM.

`COC(=O)CCCC12CCC(OCc3cc(F)ccc3-c3ccc(C)cc3)(CC1)C2` [Example 66, methyl 4-(4-((4-fluoro-4′-methyl-[1,1′-biphenyl]-2-yl)methoxy)bicyclo [2.2.1]heptan-1-yl)butanoic]: the EC50 was found to be 370 nM.

`O=C(O)/C=C/CC12CCC(OCc3cccc(Oc4ccccc4)c3)(CC1)C2` [Example 94, (E)-4-(4-((3-Phenoxybenzyl)oxy)bicyclo[2.2.1]heptan-1-yl)but-2-enoic acid]: the EC50 came out at 630 nM.

Regarding `O=C(O)CCCC12CCC(OCc3cc(OC(F)(F)F)ccc3F)(CC1)C2` [Example 33, 4-(4-(2-fluoro-5-(trifluorometh-oxy)benzyloxy)bicyclo[2.2.1]heptan-1-yl) butanoic acid], the half-maximal effective concentration (EC50) amounted to 260 nM.

Take `O=C(CCCC12CCC(OCc3cccc(Oc4ccccc4)c3)(CC1)C2)N1CC(O)C1` [Example 85, 1-(3-Hydroxyazetidin-1-yl)-4-(4-((3-phenoxybenzyl)oxy)bicyclo[2.2.1]heptan-1-yl)butan-1-one]: the concentration for a half-maximal effect (EC50) worked out at 2400 nM.

Consider `O=C(O)CCCC12CCC(OCc3c(Cl)ccc(Cl)c3Cl)(CC1)C2` [Example 59, 4-(4-(2,3,6-trichlorobenzyl-oxy)bicyclo [2.2.1]heptan-1-yl)butanoic acid], for which the EC50 is 610 nM.

`CC(CCC12CCC(OCc3ccccc3Oc3ccccc3)(CC1)C2)C(=O)O` (stereo not drawn) [Example 68, 2-Methyl-4-(4-(2-phenoxybenzyloxy)bicyclo[2.2.1]heptan-1-yl)butanoic acid]: the EC50 was determined as 1000 nM.

Consider `O=C(O)CCCC12CCC(OCc3cc(F)cc(OC(F)(F)F)c3)(CC1)C2` [Example 28, 4-(4-(3-fluoro-5-(trifluorometh-oxy)benzyloxy)bicyclo[2.2.1]heptan-1-yl) butanoic acid], for which the EC50 is 390 nM.

Take `CC(C)Oc1cccc(COC23CCC(CCCC(=O)O)(CC2)C3)c1` [Example 38, 4-(4-(3-isopropoxy-benzyloxy)bicyclo [2.2.1]heptan-1-yl)butanoic acid]: the EC50 was determined as 1680 nM.

`O=C(O)CCCC12CCC(OCc3ccc(Cl)cc3Cl)(CC1)C2` [Example 41, 4-(4-(2,4-dichlorobenzyloxy)bicyclo[2.2.1]heptan-1-yl) butanoic acid]: the EC50 was 1100 nM.

As for `COc1cc(Cl)cc(COC23CCC(CCCC(=O)O)(CC2)C3)c1` [Example 31, 4-(4-(3-chloro-5-methoxybenzyl-oxy)bicyclo [2.2.1]heptan-1-yl)butanoic acid], the EC50 worked out at 900 nM.

`O=C(O)COCC12CCC(OCc3ccccc3Oc3ccccc3)(CC1)C2` [Example 72, 2-((4-(2-Phenoxybenzyloxy)bicyclo[2.2.1]heptan-1-yl)methoxy)acetic acid]: the EC50 turned out to be 1120 nM.

As to `O=C(O)CCCC12CCC(OCc3cccc(Oc4ccc(F)cc4)c3)(CC1)C2` [Example 17, 4-(4-(3-(4-fluorophenoxy)benzyloxy)bicyclo[2.2.1]-1-yl)butanoic acid], the EC50 stood at 250 nM.

For the molecule `O=C(O)C1CC1CC12CCC(OCc3cc(F)cc(Oc4ccccc4)c3)(CC1)C2` (racemic) [Example 91, 2-((4-((3-Fluoro-5-phenoxybenzyl)oxy)bicyclo[2.2.1]heptan-1-yl)methyl)cyclopropanecarboxylic acid], the EC50 stood at 280 nM.

With `NC(=O)CNC(=O)CCCC12CCC(OCc3cc(F)cc(Oc4ccccc4)c3)(CC1)C2` [Example 98, N-(2-Amino-2-oxoethyl)-4-(4-((3-fluoro-5-phenoxybenzyl)oxy)bicyclo[2.2.1]heptan-1-yl)butanamide], the EC50 worked out at 2680 nM.

With `O=C(O)CCCC12CCC(OCc3ccccc3SC(F)(F)F)(CC1)C2` [Example 49, 4-(4-(2-(trifluoro-methylthio)benzyloxy)bicyclo [2.2.1]heptan-1-yl)butanoic acid], the EC50 was found to be 660 nM.

With `CNC(=O)CCCC12CCC(OCc3cccc(Oc4ccccc4)c3)(CC1)C2` [Example 84, N-Methyl-4-(4-((3-phenoxybenzyl)oxy)bicyclo[2.2.1]heptan-1-yl)butanamide], the EC50 was found to be 3030 nM.

With `COc1ccc(COC23CCC(CCCC(=O)O)(CC2)C3)c(OC(F)(F)F)c1` [Example 43, 4-(4-(4-methoxy-2-(trifluoromethoxy)benzyloxy)bicyclo[2.2.1]heptan-1-yl) butanoic acid], the EC50 amounted to 320 nM.

Take `CC1(C)Cc2cc(Cl)cc(COC34CCC(COCC(=O)O)(CC3)C4)c2O1` [Example 77, 2-((4-((5-chloro-2,2-dimethyl-2,3-dihydrobenzofuran-7-yl)methoxy)bicyclo[2.2.1]heptan-1-yl)methoxy)acetic acid]: the concentration for a half-maximal effect (EC50) came out at 4530 nM.

Take `O=C(O)CCCC12CCC(OCc3cc(F)cc(Cl)c3)(CC1)C2` [Example 22, 4-(4-(3-chloro-5-fluorobenzyl-oxy)bicyclo [2.2.1]heptan-1-yl)butanoic acid]: the EC50 came out at 730 nM.

In the case of `O=C(O)CCCC12CCC(OCc3cccc(OC(F)(F)F)c3)(CC1)C2` [Example 26, 4-(4-(3-(trifluoro-methoxy)benzyl-oxy)bicyclo[2.2.1]heptan-1-yl) butanoic acid], the EC50 worked out at 620 nM.

For the molecule `O=C(O)CCCC12CCC(OCc3ccccc3-c3ccccc3)(CC1)C2` [Example 48, 4-(4-(biphenyl-2-ylmethoxy)bicyclo[2.2.1]heptan-1-yl) butanoic acid], the EC50 was found to be 320 nM.

On to `O=C(O)CCCC12CCC(OCc3cccc(SC(F)(F)F)c3)(CC1)C2` [Example 50, 4-(4-(3-(trifluoro-methylthio)benzyloxy)bicyclo[2.2.1]heptan-1-yl) butanoic acid], for which the EC50 came to 540 nM.

As for `O=C(O)CCCC12CCC(OCc3cccc(Oc4ccc(Cl)cc4)c3)(CC1)C2` [Example 32, 4-(4-(3-(4-chlorophenoxy)benzyloxy)bicyclo [2.2.1]heptan-1-yl) butanoic acid], the EC50 turned out to be 590 nM.

For the molecule “4-(4-(2-(trifluoro- methoxy) benzoyloxy) bicyclo[2.2.1] heptan-1-yl) butanoic acid [Example 20]”, the EC50 is 710 nM.

For the molecule `O=C(O)CCCC12CCC(OCc3cccc(C(=O)c4ccccc4)c3)(CC1)C2` [Example 39, 4-(4-(3-benzoyl-benzyloxy)bicyclo[2.2.1]heptan-1-yl) butanoic acid], the EC50 was found to be 820 nM.

For the molecule `O=C(O)CCCC12CCC(OCc3cc(F)cc(C(F)(F)F)c3)(CC1)C2` [Example 25, 4-(4-(3-fluoro-5-(trifluoromethyl)benzyloxy)bicyclo[2.2.1]heptan-1-yl) butanoic acid], the concentration for a half-maximal effect (EC50) was determined as 640 nM.

The values above are taken from patent US9518000B2, “Bicyclo [2.2.1] acid GPR120 modulators” (BRISTOL-MYERS SQUIBB COMPANY, priority 2013, dated 2016).
